Test results: PubChem BioAssay AID1053120 (Broad Institute, 2014)
The source made the active and inactive calls. No rule for the calls is given here.

Assays:
[1] = glycosylation-insensitive luciferase reporter activation – D54 LucT cells, dry powder, set 2, counter-screen for N-linked glycosylation inhibitor project, dose response (AID 1053120); settings: D54 LucT luciferase reporter (no NLG), luminescence, 24 h; at 19.5 µM (top of the series)
[2] = system: D54 LucT luciferase reporter (no NLG), luminescence, 24 h; assay: as above

SMILES	luciferase activation [1]	AC40 [2]
Cc1cnc(NC(=O)c2cc(S(=O)(=O)N3CCCC3)ccc2N2CCCC2)s1	-20% (inactive)	–
COC(=O)c1cn(C(=O)c2ccc(OC)cc2)c2ccccc12	–	15400 nM
Brc1ccc(CSc2nnc(-c3ccccc3)o2)cc1	0% (inactive)	–
CC(=O)N[C@H]1[C@@H](O[C@@H]2OC(C[C@@H](O)C3O[C@@H](n4ccc(=O)[nH]c4=O)[C@H](O)[C@@H]3O)[C@H](O)[C@H](O)[C@H]2NC(=O)/C=C/CCCCCCCCCCC(C)C)O[C@H](CO)[C@@H](O)[C@@H]1O (some centres not stated)	-50% (inactive)	–
CCOC(=O)c1ccc(Oc2cc(C)nc(SC)n2)cc1	–	3390 nM
CCN(CC)CCOc1ccc2c(c1)C(=NNC(=O)c1ccccn1)c1cc(OCCN(CC)CC)ccc1-2	-33.3% (inactive)	–
CN(C)S(=O)(=O)c1ccc(N2CCCC2)c(C(=O)Nc2nccs2)c1	20% (inactive)	–
CCCCOc1ccccc1C1CC(=O)NC2=C1C(=O)CCC2 (configuration not stated)	0% (inactive)	–
CCCNS(=O)(=O)c1cccc(C(=O)OCc2cc(=O)oc3cc(OC)ccc23)c1	–	2140 nM
Cc1cnc(NC(=O)c2cc(S(=O)(=O)N(C)C)ccc2N2CCC2)s1	-20% (inactive)	–
Cc1cnc(NC(=O)c2cc(S(=O)(=O)N(C)C)ccc2N2CCCC2)s1	0% (inactive)	–
Cc1cccc(C)c1OCCNC(=O)C(=O)NCc1ccco1	33.3% (inactive)	–
COc1ccc(-c2nnc(SCc3ccccc3)o2)cc1	–	5120 nM
O=C(N/N=C/c1ccc(Cl)cc1)c1sccc1OCc1ccc(F)cc1	–	1600 nM
CN(C)CCCN(Cc1cc2ccccc2[nH]c1=O)C(=O)NCc1ccccc1	0% (inactive)	–
COc1ccc2sc(NC(=O)c3cc(S(=O)(=O)N(C)C)ccc3N3CCCC3)nc2c1	-50% (inactive)	–
Cc1ccc(C(=O)c2cc([N+](=O)[O-])ccc2N2CCOCC2)cc1C	66.7% (inactive)	–
Cc1cc(=O)[nH]c(N/N=C/c2cc(C)n(CC(F)(F)F)c2C)n1	0% (inactive)	–
CCOc1ccc(S(=O)(=O)NCc2ccccn2)cc1NC(=O)c1ccccc1F	0% (inactive)	–
Cc1ccc(Oc2ccc(S(=O)(=O)N3CCOCC3)cc2C(N)=O)c(-n2nc3ccccc3n2)c1	33.3% (inactive)	–
Cc1ccc(/C=N/NC(=O)C2COc3ccccc3O2)s1 (configuration not stated)	–	15300 nM

SMILES	luciferase activation [1]	AC40 [2]
COc1cc(C(=O)NCCOc2cc(C)cc(C)c2)cc(OC)c1OC	33.3% (inactive)	–
COc1ccc(NC(=O)C(=O)c2cn(CC(=O)N3CCCC3)c3ccccc23)cc1	-33.3% (inactive)	–
Cc1cc(NC(=O)CSc2nc(-c3ccco3)cc(C(F)(F)F)n2)no1	0% (inactive)	–
CCn1c2ccccc2c2cc(NC(=O)c3cc(OC)c(OC)c(OC)c3)ccc21	-33.3% (inactive)	–
CC(=O)c1cccc(NC(=O)CSc2ncc(C(=O)Nc3ccccc3)c(=O)n2C)c1	33.3% (inactive)	–
CC(=O)N1CCC(=O)c2cc3ccccc3cc21	33.3% (inactive)	–
CN(C)CCCN(Cc1cc2ccccc2[nH]c1=O)C(=O)Nc1ccccc1	20% (inactive)	–
O=C1CCNc2cc3ccccc3cc21	-66.7% (inactive)	–
CCOC(=O)COc1cccc2c(=O)n(CC(=O)NCc3ccccc3)ccc12	0% (inactive)	–
CN(C)S(=O)(=O)c1ccc(N2CCCC2)c(C(=O)Nc2ccccc2)c1	20% (inactive)	–
O=C1CCN(Cc2ccccc2)c2cc3ccccc3cc21	0% (inactive)	–
COc1cccc2sc(NC(=O)c3cc(S(=O)(=O)N(C)C)ccc3N3CCCC3)nc12	-50% (inactive)	–
COc1ccccc1CSc1nnc(-c2ccccc2)o1	–	845 nM
Cc1ccc(NC(=O)c2cc(S(=O)(=O)N(C)C)ccc2N2CCCC2)cc1	0% (inactive)	–
COc1ccc2c(COC(=O)c3cccc(S(=O)(=O)NCC(C)C)c3)cc(=O)oc2c1	66.7% (inactive)	–
Cc1ccc2cc(CN(CCCN(C)C)C(=O)Nc3ccccc3)c(=O)[nH]c2c1C	0% (inactive)	–
Cc1cnc(NC(=O)c2cc(S(=O)(=O)N3CCCCC3)ccc2N2CCCC2)s1	50% (inactive)	–
COc1cccc(N2CCN(C(=O)c3ccc(CS(=O)c4ccc(C)cc4)o3)CC2)c1 (configuration not stated)	0% (inactive)	–
CCN(CC)CCCNc1nc2cc(OC)c(OC)cc2c2nc(-c3ccccc3)nn12	-33.3% (inactive)	–
Cc1[nH][nH]c(=O)c1C(c1ccc(-c2ccc(Cl)c(Cl)c2)o1)c1c(C)[nH][nH]c1=O	0% (inactive)	–
Cc1cc(C)nc(/N=C(\N)Nc2ccc(OCc3ccccc3)cc2)n1	-33.3% (inactive)	–

SMILES	luciferase activation [1]	AC40 [2]
Cc1ccc2cc(CN(CCCN(C)C)C(=O)NCc3ccccc3)c(=O)[nH]c2c1C	50% (inactive)	–
COc1ccc(CSc2nnc(-c3ccccc3)o2)cc1	50% (inactive)	–
Cc1cc(C)cc(C(=O)N2CC(=O)Nc3ccccc32)c1	33.3% (inactive)	–
CCC1=Nc2cc(C(=O)NCCCOC)ccc2Sc2ccccc21	-33.3% (inactive)	–
Nc1nc(=S)c2ncn([C@@H]3O[C@H](CO)[C@@H](O)[C@H]3O)c2[nH]1	–	5190 nM
COc1ccc2nc(NC(=O)c3cc(S(=O)(=O)N(C)C)ccc3N3CCCC3)sc2c1	0% (inactive)	–
CCOc1ccc(NC(=O)c2cc(OC)nc3ccccc23)cc1	0% (inactive)	–
COc1cc(-c2nnc(SCC3(c4ccc(Br)cc4)OCCO3)o2)cc(OC)c1OC	–	930 nM
CC(=O)c1ccc(Oc2cc(C)nc(-n3nc(C)cc3C)n2)cc1	0% (inactive)	–
CCCOC(=O)c1[nH]c2c(c1C)C(=O)CC(c1cccs1)C2 (configuration not stated)	50% (inactive)	–
COc1cc(Nc2c3c(nc4ccccc24)CCCC3)cc(OC)c1OC	0% (inactive)	–
Cc1ccc(CCC(=O)Nc2ncc(Cc3cc(Cl)ccc3Cl)s2)o1	-33.3% (inactive)	–
CN(C)S(=O)(=O)c1ccc(N2CCCC2)c(C(=O)Nc2nc3ccccc3s2)c1	0% (inactive)	–
COc1ccccc1-c1nnc(SCc2ccccc2)o1	–	632 nM
O=C(Cc1ccccc1)c1nnc(-c2ccccc2)o1	33.3% (inactive)	–
CCN(CC)CCC(=O)Nc1cccc2c1C(=O)c1ccccc1C2=O	-33.3% (inactive)	–
COc1ccccc1OCC(=O)NNC(=O)c1ccoc1C	33.3% (inactive)	–
Cc1cnc(NC(=O)c2cc(S(=O)(=O)N3CCOCC3)ccc2N2CCCC2)s1	-20% (inactive)	–
Cc1csc(NC(=O)c2cc(S(=O)(=O)N(C)C)ccc2N2CCCC2)n1	50% (inactive)	–
C/C(=N\NC(=O)c1c([N+](=O)[O-])c(C)nn1C)c1ccc(NC(=O)C2CCCC2)cc1	0% (inactive)	–
